Data published in patent publication US20100256357A1, “HETEROCYCLES USEFUL AS INHIBITORS OF CARBONIC ANHYDRASE” (Agouron Pharmaceuticals, Inc., priority 2006, published 2010).

Target: T1, human CA-II (Homo sapiens, UniProt P00918)
T1 construct: purchased Sigma-Aldrich C6165
Assay: Carbonic Anhydrase-II (CA-II) Fluorescence Polarization Tight Binding Assay-Kd Determination
Conditions: inhibitor concentration 2.5 nM
Method: Assays were conducted in a final volume of 100 μL in 50 mM Tris/HCl (pH 7.6), 100 mM Na2SO4 and 0.005% Tween-20 in a 96-well black assay plate. […] The assay plate was
The Kd binding was calculated using GraphPad Prism and Morrison tight binding ligand equation.

SMILES | inhibition at 0.0025 µM [%]
NS(=O)(=O)c1ccc(-n2nc(CN[C@H]3CCCC[C@H]3O)nc2Cc2ccccc2)c(F)c1 [Example T-53, 4-[5-benzyl-3-({[(1S2R)-2-hydroxycyclohexyl]amino}methyl)-1H-124-triazol-1-yl]-3-fluorobenzenesulfonamide] | 75
COC1COCCN(Cc2nc(Cc3ccccc3)n(-c3ccc(S(N)(=O)=O)cc3F)n2)C1 (stereo not shown) [Example T-40, 4-{5-benzyl-3-[(6-methoxy-14-oxazepan-4-yl)methyl]-1H-124-triazol-1-yl}-3-fluorobenzenesulfonamide] | 49
COC[C@@H](NCc1nc(Cc2ccccc2)n(-c2ccc(S(N)(=O)=O)cc2F)n1)c1ccccc1 [Example T-47, 4-[5-benzyl-3-({[(1S)-2-methoxy-1-phenylethyl]amino}methyl)-1H-124-triazol-1-yl]-3-fluorobenzenesulfonamide] | 41
NS(=O)(=O)c1ccc(-n2nc(CNCc3ccc(F)cc3)nc2Cc2ccccc2)c(F)c1 [Example T-56, 4-(5-benzyl-3-{[(4-fluorobenzyl)amino]methyl}-1H-124-triazol-1-yl)-3-fluorobenzenesulfonamide] | 50
NS(=O)(=O)c1ccc(-n2nc(CN3CCC[C@@H](O)C3)nc2Cc2ccccc2)c(F)c1 [Example T-39, 4-(5-benzyl-3-{[(3R)-3-hydroxypiperidin-1-yl]methyl}-1H-124-triazol-1-yl)-3-fluorobenzenesulfonamide] | 65
CCCN(C)Cc1nc(Cc2ccccc2)n(-c2ccc(S(N)(=O)=O)cc2F)n1 [Example T-42, 4-(5-benzyl-3-{[methyl(propyl)amino]methyl}-1H-124-triazol-1-yl)-3-fluorobenzenesulfonamide] | 42
Cc1cc(CNCc2nc(Cc3ccccc3)n(-c3ccc(S(N)(=O)=O)cc3F)n2)ccc1F [Example T-49, 4-(5-benzyl-3-{[(4-fluoro-3-methylbenzyl)amino]methyl}-1H-124-triazol-1-yl)-3-fluorobenzenesulfonamide] | 49
NS(=O)(=O)c1ccc(-n2nc(CNCC3(c4ccccc4)CC3)nc2Cc2ccccc2)c(F)c1 [Example T-45, 4-[5-benzyl-3-({[(1-phenylcyclopropyl)methyl]amino}methyl)-1H-124-triazol-1-yl]-3-fluorobenzenesulfonamide] | 53
C[C@@H](NCc1nc(Cc2ccccc2)n(-c2ccc(S(N)(=O)=O)cc2F)n1)[C@@H](O)c1ccccc1 [Example T-43, 4-[5-benzyl-3-({[(1R2S)-2-hydroxy-1-methyl-2-phenylethyl]amino}methyl)-1H-124-triazol-1-yl]-3-fluorobenzenesulfonamide] | 41
C[C@@H]1COCCN1Cc1nc(Cc2ccccc2)n(-c2ccc(S(N)(=O)=O)cc2F)n1 [Example T-41, 4-(5-benzyl-3-{[(3R)-3-methylmorpholin-4-yl]methyl}-1H-124-triazol-1-yl)-3-fluorobenzenesulfonamide] | 58
NS(=O)(=O)c1ccc(-n2nc(CNC3CCCCCC3)nc2Cc2ccccc2)c(F)c1 [Example T-57, 4-(5-benzyl-3-[(cycloheptylamino)methyl]-1H-124-triazol-1-yl}-3-fluorobenzenesulfonamide] | 68
C[C@H](CNCc1nc(Cc2ccccc2)n(-c2ccc(S(N)(=O)=O)cc2F)n1)c1ccccc1 [Example T-52, 4-[5-benzyl-3-({[(2S)-2-phenylpropyl]amino}methyl)-1H-124-triazol-1-yl]-3-fluorobenzenesulfonamide] | 39
C[C@H](NCc1nc(Cc2ccccc2)n(-c2ccc(S(N)(=O)=O)cc2F)n1)[C@H](O)c1ccccc1 [Example T-50, 4-[5-benzyl-3-({[(1S2R)-2-hydroxy-1-methyl-2-phenylethyl]amino}methyl)-1H-124-triazol-1-yl]-3-fluorobenzenesulfonamide] | 63

More lines, now with the values ahead:

inhibition at 0.0025 µM [%] | SMILES
45 | NS(=O)(=O)c1ccc(-n2nc(CNCc3ccccc3F)nc2Cc2ccccc2)c(F)c1 [Example T-74, 4-(5-benzyl-3-{[(2-fluorobenzyl)amino]methyl}-1H-124-triazol-1-yl)-3-fluorobenzenesulfonamide]
70 | CC(Cn1cccn1)NCc1nc(Cc2ccccc2)n(-c2ccc(S(N)(=O)=O)cc2F)n1 (stereo not shown) [Example T-72, 4-[5-benzyl-3-({[1-methyl-2-(1H-pyrazol-1-yl)ethyl]amino}methyl)-1H-124-triazol-1-yl]-3-fluorobenzenesulfonamide]
50 | NS(=O)(=O)c1ccc(-n2nc(CN[C@@H]3COC[C@@H]3C3CC3)nc2Cc2ccccc2)c(F)c1 [Example T-77, 4-[5-benzyl-3-({[(3S4R)-4-cyclopropyltetrahydrofuran-3-yl]amino}methyl)-1H-124-triazol-1-yl]-3-fluorobenzenesulfonamide]
51 | NS(=O)(=O)c1ccc(-n2nc(CNCCc3ccccc3F)nc2Cc2ccccc2)c(F)c1 [Example T-58, 4-[5-benzyl-3-({[2-(2-fluorophenyl)ethyl]amino}methyl)-1H-124-triazol-1-yl]-3-fluorobenzenesulfonamide]
53 | CC(C)CCNCc1nc(Cc2ccccc2)n(-c2ccc(S(N)(=O)=O)cc2F)n1 [Example T-59, 4-(5-benzyl-3-{[(3-methylbutyl)amino]methyl}-1H-124-triazol-1-yl)-3-fluorobenzenesulfonamide]
89 | CCC(COC)NCc1nc(Cc2ccccc2)n(-c2ccc(S(N)(=O)=O)cc2F)n1 (stereo not shown) [Example T-70, 4-[5-benzyl-3-({[1-(methoxymethyl)propyl]amino}methyl)-1H-124-triazol-1-yl]-3-fluorobenzenesulfonamide]
73 | COC[C@H](C)NCc1nc(Cc2ccccc2)n(-c2ccc(S(N)(=O)=O)cc2F)n1 [Example T-80, 4-[5-benzyl-3-({[(1S)-2-methoxy-1-methylethyl]amino}methyl)-1H-124-triazol-1-yl]-3-fluorobenzenesulfonamide]
47 | COC[C@H]1CCC[C@H]1NCc1nc(Cc2ccccc2)n(-c2ccc(S(N)(=O)=O)cc2F)n1 [Example T-71, 4-[5-benzyl-3-({[(1R2S)-2-(methoxymethyl)cyclopentyl]amino}methyl)-1H-124-triazol-1-yl]-3-fluorobenzenesulfonamide]
58 | C[C@@H](NCc1nc(Cc2ccccc2)n(-c2ccc(S(N)(=O)=O)cc2F)n1)c1ccccc1 [Example T-65]
47 | NS(=O)(=O)c1ccc(-n2nc(CNCCOc3ccccc3)nc2Cc2ccccc2)c(F)c1 [Example T-64, 4-(5-benzyl-3-{[(2-phenoxyethyl)amino]methyl}-1H-124-triazol-1-yl)-3-fluorobenzenesulfonamide]
47 | NS(=O)(=O)c1ccc(-n2nc(CN[C@@H]3C[C@H]4CC[C@@H]3C4)nc2Cc2ccccc2)c(F)c1 [Example T-67]
71 | Cc1cccc(CC(C)NCc2nc(Cc3ccccc3)n(-c3ccc(S(N)(=O)=O)cc3F)n2)n1 (stereo not shown) [Example T-78, 4-[5-benzyl-3-({[1-methyl-2-(6-methylpyridin-2-yl)ethyl]amino}methyl)-1H-124-triazol-1-yl]-3-fluorobenzenesulfonamide]
